Results taken from patent US8481551B2, “Gyrase and topoisomerase IV inhibitors” (Vertex Pharmaceuticals Incorporated, priority 2011, dated 2013).
Where a name gives a salt, the structure may show the parent alone.

Columns and labels:
[1] = test system: Enterococcus faecalis; assay: Gyrase MIC, microdilution broth method (Protocol 1); details: for MIC: ATCC29212
[2] = test system: M. tuberculosis; assay: MIC determination procedure for Mycobacterium species (Protocol 4); assay type: cell-based
[3] = test system: Bacillus subtilis; assay: Gyrase MIC, microdilution broth method (Protocol 1); assay type: cell-based
[4] = test system: Acinetobacter baumannii; assay: Gyrase MIC against Gram negatives, microdilution broth method (Protocol 2); assay type: cell-based; details: for MIC90: Acinetobacter baumannii, 12 isolates tested
[5] = test system: N. asteroids; assay: MIC determination procedure for Mycobacterium species (Protocol 4); assay type: cell-based; details: N. asteroids 2039
[6] = test system: Staphlococcus epidermidis; assay: Gyrase MIC, microdilution broth method (Protocol 1); assay type: cell-based, Staphylococcus epidermidis; details: 35 isolates tested; for MIC90: Staphylococcus epidermidis
[7] = test system: Klebsiella pneumoniae; assay: Gyrase MIC against Gram negatives, microdilution broth method (Protocol 2); assay type: cell-based; details: for MIC90: Klebsiella pneumoniae, 12 isolates tested
[8] = test system: Proteus mirabilis; assay: as above; assay type: cell-based; details: 12 isolates tested
[9] = test system: Clostridium difficile; assay: Gyrase MIC, agar dilution method (Protocol 3); assay type: cell-based; details: for MIC / MIC90: Clostridioides difficile; for MIC: ATCCBAA1382, Clostridium difficile ATCC BAA-1382; for MIC90 / MIC Range: Clostridium difficile, 16 isolates tested
[10] = test system: β-haemolytic streptococci (Groups A, B, C and G); assay: Gyrase MIC, microdilution broth method (Protocol 1); assay type: cell-based; details: 28 isolates tested
[11] = test system: Bacteroides and Parabacter spp.; assay: Gyrase MIC, agar dilution method (Protocol 3); assay type: cell-based; details: 26 isolates tested
[12] = test system: N. nova; assay: MIC determination procedure for Mycobacterium species (Protocol 4); assay type: cell-based; details: N. nova 10
[13] = Aqueous solubility study; assay type: physicochemical
Experimental: The aqueous solubilities of compound 23 and compound W were determined according to the following procedure.
Preparation of Samples. Aqueous samples of each compound were prepared as follows. Compounds were weighed (20-30 mg compound) in 4 ml clear vials prior to adding water (0.5 mL) and stirring by magnetic stirrer. 1.0N HCl was added to the suspension to adjust the pH to the desired range. After stirring for 96 hours at room temperature, the suspension was filtered through a 0.22 micron filter (Millipore, Ultrafree centrifugal filters, Durapore PVDF 0.22 μm, Cat# UFC30GVNB). The filtrate was collected and the pH measured with a pH meter.
Preparation of Standard Solutions. […]
Solubility Analysis. Aliquots of each sample and each standard solution were analyzed by HPLC analysis (Agilent 1100, injection volume 10 μL, wavelength 271 nm, column XTerra® Phenyl 5 μm, 4.6×50 mm, Part No. 186001144, mobile phase: A: 0.1% TFA in water 0.1% TFA in AcN). […] Standard curves were obtained by plotting the average of the peak area from the HPLC versus the concentrations of the standard solutions (with appropriate corrections of the weights of the standards based on total water content of the solid as determined by elemental analysis). The concentration of each sample was calculated from the peak area of the aqueous sample from the HPLC results and the slope and intercept of the standard curves. […]

[14] = test system: M. kansasii; assay: MIC determination procedure for Mycobacterium species (Protocol 4); assay type: cell-based
[15] = test system: M. abscessus; assay: as above; assay type: cell-based; details: Mycobacteroides abscessus
[16] = test system: Stenotrophomonas maltophilia; assay: Gyrase MIC against Gram negatives, microdilution broth method (Protocol 2); assay type: cell-based
[17] = target: S. aureus TopoIV enzyme (Staphylococcus aureus, UniProt P0C1S7); assay: DNA Topo IV ATPase assay; assay type: biochemical; details: 64 nM enzyme, 30° C., Morrison Equation fit
[18] = Conversion of Compound W to Compound 23 in liver S9 fractions; assay type: in vitro ADME; details: hepatic and intestinal S9 fractions from rats, dogs, monkeys and humans
Experimental: The incubations were done for 0, 5, 10, 15, 30, 45 or 60 minutes. The formation of Compound 23 was quantified by LC/MS-MS and data were fitted to the Michaelis Menten equation.

[19] = target: S. aureus DNA gyrase (Staphylococcus aureus, UniProt P0A0K8); assay: DNA gyrase ATPase assay; details: 90 nM enzyme, 0.9 mM ATP, 30° C.
[20] = ATCC6051, Bacillus subtilis (168) ATCC 6051
[21] = ATCC6638, Bacillus subtilis ATCC 6638
[22] = ATCC19606, Acinetobacter baumannii ATCC 19606
[23] = ATCCBAA1710, Acinetobacter baumannii ATCC BAA-1710
[24] = ATCC700603, Klebsiella pneumoniae ATCC 700603
[25] = ATCCBAA1705, Klebsiella pneumoniae ATCC BAA-1705

Sequence of S. aureus TopoIV enzyme (P0C1S7 whole entry): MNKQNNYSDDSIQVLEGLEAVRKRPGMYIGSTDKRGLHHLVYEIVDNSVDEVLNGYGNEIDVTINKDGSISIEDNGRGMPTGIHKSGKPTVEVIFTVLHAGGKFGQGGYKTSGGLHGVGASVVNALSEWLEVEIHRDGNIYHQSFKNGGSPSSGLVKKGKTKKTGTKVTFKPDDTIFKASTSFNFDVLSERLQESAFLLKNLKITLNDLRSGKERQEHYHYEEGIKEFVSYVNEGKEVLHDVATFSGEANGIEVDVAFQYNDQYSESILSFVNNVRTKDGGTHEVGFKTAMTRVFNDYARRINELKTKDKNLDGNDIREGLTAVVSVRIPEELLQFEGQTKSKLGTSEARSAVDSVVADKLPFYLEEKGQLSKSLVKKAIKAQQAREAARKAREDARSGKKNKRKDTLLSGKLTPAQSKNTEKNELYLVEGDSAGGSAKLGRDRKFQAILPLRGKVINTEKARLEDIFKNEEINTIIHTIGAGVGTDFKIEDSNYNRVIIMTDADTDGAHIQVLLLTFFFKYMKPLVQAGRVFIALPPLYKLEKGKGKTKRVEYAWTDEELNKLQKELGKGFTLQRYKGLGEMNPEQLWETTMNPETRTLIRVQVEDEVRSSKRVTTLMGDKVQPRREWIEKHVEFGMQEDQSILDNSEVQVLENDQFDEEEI
Sequence of S. aureus TopoIV enzyme (P0C1U9 whole entry partner): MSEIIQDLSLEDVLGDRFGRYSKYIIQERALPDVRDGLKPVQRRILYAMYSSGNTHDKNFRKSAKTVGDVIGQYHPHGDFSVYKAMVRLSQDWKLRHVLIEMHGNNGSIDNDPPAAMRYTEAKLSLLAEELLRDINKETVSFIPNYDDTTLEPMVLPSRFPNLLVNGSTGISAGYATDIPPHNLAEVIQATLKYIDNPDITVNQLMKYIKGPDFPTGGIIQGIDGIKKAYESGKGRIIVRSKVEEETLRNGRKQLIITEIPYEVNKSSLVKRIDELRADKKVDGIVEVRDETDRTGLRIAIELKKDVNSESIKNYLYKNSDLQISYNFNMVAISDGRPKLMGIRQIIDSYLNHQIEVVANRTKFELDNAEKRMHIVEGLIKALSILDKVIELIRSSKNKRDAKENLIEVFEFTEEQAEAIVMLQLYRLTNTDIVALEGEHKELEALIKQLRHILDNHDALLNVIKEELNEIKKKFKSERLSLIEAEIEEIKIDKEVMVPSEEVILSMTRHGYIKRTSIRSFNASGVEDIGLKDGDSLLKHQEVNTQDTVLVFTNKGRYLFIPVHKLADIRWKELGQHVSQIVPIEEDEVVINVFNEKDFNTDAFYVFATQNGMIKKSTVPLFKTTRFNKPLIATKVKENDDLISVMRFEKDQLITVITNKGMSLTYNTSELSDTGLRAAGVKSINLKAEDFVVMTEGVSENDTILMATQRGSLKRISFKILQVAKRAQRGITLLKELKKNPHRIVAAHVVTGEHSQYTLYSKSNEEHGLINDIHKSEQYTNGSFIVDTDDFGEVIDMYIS
Sequence of S. aureus DNA gyrase (P20831 whole entry): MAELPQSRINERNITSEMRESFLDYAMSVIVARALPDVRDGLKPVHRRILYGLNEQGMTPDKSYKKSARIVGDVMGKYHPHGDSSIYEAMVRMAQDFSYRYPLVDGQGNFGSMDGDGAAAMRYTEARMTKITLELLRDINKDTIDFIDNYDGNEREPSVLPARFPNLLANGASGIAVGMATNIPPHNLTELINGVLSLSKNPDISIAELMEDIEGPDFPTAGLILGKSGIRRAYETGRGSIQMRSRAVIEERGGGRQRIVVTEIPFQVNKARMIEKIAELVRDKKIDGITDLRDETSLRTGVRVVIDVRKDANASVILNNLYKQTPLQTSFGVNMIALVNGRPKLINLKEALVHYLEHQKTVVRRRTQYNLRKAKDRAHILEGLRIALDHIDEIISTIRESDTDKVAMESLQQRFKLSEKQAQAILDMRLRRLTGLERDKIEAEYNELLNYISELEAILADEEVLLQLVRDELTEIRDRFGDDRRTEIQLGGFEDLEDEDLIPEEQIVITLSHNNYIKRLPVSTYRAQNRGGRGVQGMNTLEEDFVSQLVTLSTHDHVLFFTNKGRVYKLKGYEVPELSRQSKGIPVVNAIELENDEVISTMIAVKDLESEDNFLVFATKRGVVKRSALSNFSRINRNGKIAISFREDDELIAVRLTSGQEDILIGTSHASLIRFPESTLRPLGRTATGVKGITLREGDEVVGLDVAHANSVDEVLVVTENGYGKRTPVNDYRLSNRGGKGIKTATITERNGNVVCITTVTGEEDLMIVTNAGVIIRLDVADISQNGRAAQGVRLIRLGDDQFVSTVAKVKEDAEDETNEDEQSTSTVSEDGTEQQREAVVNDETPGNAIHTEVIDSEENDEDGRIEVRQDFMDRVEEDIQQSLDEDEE
Sequence of S. aureus DNA gyrase (P0A0K8 whole entry): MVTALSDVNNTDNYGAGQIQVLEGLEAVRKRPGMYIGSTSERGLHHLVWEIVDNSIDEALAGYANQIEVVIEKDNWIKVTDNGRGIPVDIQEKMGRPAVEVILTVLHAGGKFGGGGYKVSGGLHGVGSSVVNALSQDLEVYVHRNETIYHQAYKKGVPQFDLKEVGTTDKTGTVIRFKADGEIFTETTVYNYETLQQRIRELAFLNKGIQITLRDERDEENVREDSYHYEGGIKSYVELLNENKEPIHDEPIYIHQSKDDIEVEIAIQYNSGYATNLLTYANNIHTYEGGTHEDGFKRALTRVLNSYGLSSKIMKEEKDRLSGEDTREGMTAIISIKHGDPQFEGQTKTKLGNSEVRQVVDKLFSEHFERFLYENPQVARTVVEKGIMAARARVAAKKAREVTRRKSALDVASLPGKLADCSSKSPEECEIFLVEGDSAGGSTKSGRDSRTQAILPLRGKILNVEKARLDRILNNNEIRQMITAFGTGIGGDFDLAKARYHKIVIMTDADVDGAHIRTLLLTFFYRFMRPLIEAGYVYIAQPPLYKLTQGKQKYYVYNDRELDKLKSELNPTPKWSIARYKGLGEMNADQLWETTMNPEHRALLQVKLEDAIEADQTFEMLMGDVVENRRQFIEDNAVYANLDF

Compound: CCNC(=O)Nc1nc2cc(-c3cnc(C(C)(C)O)nc3)cc([C@H]3CCCO3)c2[nH]1 [Compound 13, methanesulfonic acid salt of 1-ethyl-3-[5-[2-(1-hydroxy-1-methyl-ethyl)pyrimidin-5-yl]-7-[(2R)-tetrahydrofuran-2-yl]-1H-benzimidazol-2-yl]urea]
- MIC90 [1]: 0.25 µg/mL
- MIC Range ([1]; 34 isolates tested, Protocol 1): 0.03 to 0.25 µg/mL
- MIC [1]: 0.081 µg/mL
- MIC ([2]; ATCC 25618 / H37Rv, M. tuberculosis H37Rv ATCC 25618): 0.37 µg/mL
- MIC ([2]; ATCC 35801 / ERDMAN, M. tuberculosis Erdman ATCC 35801): 0.25 µg/mL
- MIC [3, 20]: > 8 µg/mL
- MIC [3, 21]: > 8 µg/mL
- MIC [4, 22]: > 16 µg/mL
- MIC [4, 23]: > 16 µg/mL
- MIC90 [4]: > 8 µg/mL
- MIC [5]: 8 µg/mL
- MIC Range [6]: 0.03 to 0.25 µg/mL
- MIC90 [6]: 0.12 µg/mL
- MIC [7, 24]: > 16 µg/mL
- MIC [7, 25]: > 16 µg/mL
- MIC90 [7]: > 8 µg/mL
- MIC90 [8]: > 8 µg/mL
- MIC [9]: 1 µg/mL
- MIC90 [9]: 1 µg/mL
- MIC Range [9]: 0.5 to 16 µg/mL
- MIC90 [10]: 0.25 µg/mL
- MIC Range [10]: 0.06 to 0.5 µg/mL
- MIC90 [11]: > 16 µg/mL
- MIC [12]: 8 µg/mL

Compound: CCNC(=O)Nc1nc2cc(-c3cnc(C(C)(C)O)nc3)c(F)c([C@H]3CCCO3)c2[nH]1 [Compound 23, 1-ethyl-3-[6-fluoro-5-[2-(1-hydroxy-1-methyl-ethyl)pyrimidin-5-yl]-7-[(2R)-tetrahydrofuran-2-yl]-1H-benzimidazol-2-yl]urea]
- Solubility ([13]; 96 h): <1 µg/mL

Compound: CCNC(=O)Nc1nc2cc(-c3cnc(C(C)(C)O)nc3)c(F)c([C@H]3CCCO3)c2[nH]1 [Compound 23A, methanesulfonic acid salt of 1-ethyl-3-[6-fluoro-5-[2-(1-hydroxy-1-methyl-ethyl)pyrimidin-5-yl]-7-[(2R)-tetrahydrofuran-2-yl]-1H-benzimidazol-2-yl]urea]
- MIC ([14]; M. kansasii 303): 0.03 µg/mL
- MIC ([14]; M. kansasii 379): < 0.015 µg/mL
- MIC ([15]; M. abscessus BB1): 2 µg/mL
- MIC ([15]; M. abscessus BB2): 1 µg/mL
- MIC ([15]; M. abscessus BB3): 0.5 µg/mL
- MIC ([15]; M. abscessus BB4): 2 µg/mL
- MIC ([15]; M. abscessus BB5): 0.5 µg/mL
- MIC ([15]; M. abscessus BB6): 0.5 µg/mL
- MIC ([15]; M. abscessus BB8): 0.5 µg/mL
- MIC ([15]; M. abscessus LT 949): 1 µg/mL
- MIC ([15]; M. abscessus MC 5812): 1 µg/mL
- MIC ([15]; M. abscessus MC 5901): 1 µg/mL
- MIC ([15]; M. abscessus MC 5908 (second listing, r109)): 1 µg/mL
- MIC ([15]; M. abscessus MC 5922): 0.25 µg/mL
- MIC ([15]; M. abscessus MC 5931): 0.5 µg/mL
- MIC ([15]; M. abscessus MC 5960): 0.5 µg/mL
- MIC ([15]; M. abscessus MC 6005): 1 µg/mL
- MIC ([15]; M. abscessus MC 6025): 0.75 µg/mL
- MIC ([15]; M. abscessus MC 6111): 0.5 µg/mL
- MIC ([15]; M. abscessus MC 6136): 0.5 µg/mL
- MIC ([15]; M. abscessus MC 6142): 0.5 µg/mL
- MIC ([15]; M. abscessus MC 6153): 1 µg/mL
- MIC [3, 20]: 4 µg/mL
- MIC [3, 21]: 2 µg/mL
- MIC [4, 22]: 8 µg/mL
- MIC [4, 23]: 6 µg/mL
- MIC90 [4]: > 8 µg/mL
- MIC ([16]; ATCCBAA84, Stenotrophomonas maltophilia ATCC BAA-84): > 8 µg/mL
- MIC ([16]; Stenotrophomonas maltophilia ATCC13637): > 8 µg/mL
- MIC [5]: 1 µg/mL
- MIC Range [6]: 0.008 to 0.03 µg/mL
- MIC90 [6]: 0.03 µg/mL
- MIC [7, 24]: 16 µg/mL
- MIC [7, 25]: 12 µg/mL
- MIC90 [7]: > 8 µg/mL
- MIC90 [8]: > 8 µg/mL
- MIC [9]: 0.38 µg/mL
- MIC90 [9]: 0.25 µg/mL
- MIC Range [9]: 0.06-4^ μg/ml
- MIC90 [11]: 16 µg/mL
- MIC Range [11]: 0.12 to 16 µg/mL
- MIC [12]: 1 µg/mL

Compound: CCNC(=O)Nc1nc2cc(-c3cnc(C(C)(C)OP(=O)([O-])[O-])nc3)c(F)c([C@H]3CCCO3)c2[nH]1.[Na+].[Na+] [Compound W, disodium (R)-2-(5-(2-(3-ethylureido)-6-fluoro-7-(tetrahydrofuran-2-yl)-1H-benzo[d]imidazol-5-yl)pyrimidin-2-yl)propan-2-yl phosphate]
- MIC [1]: 1 µg/mL
- solubility at 96 h ([13]; aqueous buffer, thermodynamic from solid, water, pH 4.39, crystalline solid form, 96 hours at room temperature): 250 µg/mL
- IC50 [17]: 150 nM
- Ki [17]: 30 nM
- conversion of Compound W to Compound 23 [18]: rapidly converts to Compound 23
- IC50 [19]: 54 nM
